Data on eleven compounds can be found in ChEMBL document CHEMBL1201862, “PubChem BioAssay data set” (2004).

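Protocol summary: plate cells (96-well), add compound at 5 concentrations, incubate 48 h, interpolate endpoints linearly. At the GI50, growth is halved.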 Activity calls are given as the source filed them. Rule as the data show it: active = GI50 up to about 1.1 µM and inactive = higher.

What all share (experiment): NCI-60 cell line screen, 48 h
Assay [1] relates to 786-0.
The test system of assay [2] is ACHN.
In assay [3] the test system is BT-549.
In assay [4] the test system is EKVX.
In assay [5] the test system is HCT-15.
In assay [6] the test system is HOP-62.
For assay [7], the system named is HOP-92.
Assay [8] relates to M14.
Assay [9] deals with MOLT-4.
In assay [10] the test system is NCI-H23.
The subject of assay [11] is OVCAR-4.
In assay [12] the test system is RXF 393.
The subject of assay [13] is SF-295.
The subject of assay [14] is SK-MEL-28.
Assay [15] has as its system SK-MEL-2.
The test system of assay [16] is SK-OV-3.
Assay [17] has as its system SNB-75.
Assay [18] relates to TK-10.
Assay [19] has as its system UACC-62.

Turning to `CC(C)(CCC(C)(C)c1ccccc1)c1ccccc1`, the GI50 is 15.7 µM (inactive) in [1]; 17.8 µM (inactive) in [2]; 20.2 µM (inactive) in assay [3]; 17.7 µM (inactive) in assay [4]; 20.9 µM in [5]; 17.4 µM (inactive) in [6]. Moreover, the GI50 in assay [7] is 19 µM (inactive); in [8], 18.7 µM (inactive); in [9], 18.5 µM (inactive); in assay [10], 18.2 µM (inactive); in assay [11], 16.4 µM (inactive); in assay [12] it was 12.9 µM (inactive). Besides, the GI50 in assay [13] is 17 µM (inactive); in assay [14], 20 µM (inactive); in assay [15] it was 16.6 µM (inactive); in assay [16] it was 27.1 µM (inactive); in assay [17] it was 18 µM (inactive); in assay [18] it was 21.6 µM (inactive). Besides, in assay [19], the GI50 was 19 µM (inactive).

For `O=C(NO)c1ccc(OCc2cccc(Cl)c2)cc1`, the GI50 was 6.11 µM (inactive) in assay [1]; 4.57 µM (inactive) in assay [2]; 13.7 µM (inactive) in assay [3]; 10.8 µM (inactive) in assay [4]; 4.57 µM in assay [5]; 9.1 µM (inactive) in assay [6]. Also, the GI50 was 11.9 µM (inactive) in [7]; 12.9 µM (inactive) in assay [8]; 2.62 µM (inactive) in assay [9]; 5.3 µM (inactive) in assay [10]; 8.95 µM (inactive) in [11]; 10.2 µM (inactive) in assay [12]. Further, the GI50 in assay [13] is 9.33 µM (inactive); in assay [14], 12.3 µM (inactive); in assay [15] it was 12.8 µM (inactive); in [16], 8.45 µM (inactive); in assay [17] it was 9.2 µM (inactive); in [18] it was 11.6 µM (inactive). Besides, the GI50 in [19] is 5.4 µM (inactive).

Take `COC(=O)C#CC1(O)C=CC(=O)C=C1`: the GI50 in [1] is 0.483 µM (active); in [2] it was 0.571 µM (active); in assay [3], 1.01 µM (active); in assay [4], 4.12 µM (inactive); in assay [5], 0.248 µM; in assay [6], 4.72 µM (inactive). For the same compound, the GI50 was 0.891 µM (active) in assay [7]; 1.25 µM (inactive) in [8]; 0.0933 µM (active) in assay [9]; 1.57 µM (inactive) in assay [10]; 3.13 µM (inactive) in assay [11]; 1.58 µM (inactive) in assay [12]. Moreover, the GI50 in assay [13] is 8.69 µM (inactive); in [14] it was 0.579 µM (active); in assay [15], 2.36 µM (inactive); in [16], 28 µM (inactive); in [17], 3.9 µM (inactive); in assay [18], 1.18 µM (inactive). Besides, the GI50 in assay [19] was 0.865 µM (active).

On to `CN(C(=O)c1cc2c(s1)sc1c(=O)n(C)c3ccccc3c12)c1ccccc1`, for which the GI50 in assay [1] was 5.27 µM (inactive); in [2], 5.46 µM (inactive); in [3], > 100 µM (inactive); in assay [4] it was 16.7 µM (inactive); in assay [5], 1.72 µM; in [7], 42.4 µM (inactive). For the same compound, the GI50 in assay [8] was 50.9 µM (inactive); in assay [9] it was 3.63 µM (inactive); in assay [10], 7.73 µM (inactive); in assay [11], 42.7 µM (inactive); in assay [12], 21.8 µM (inactive); in assay [13], 2.25 µM (inactive). Further, the GI50 in assay [14] was > 100 µM (inactive); in assay [15], 3.77 µM (inactive); in [16], 22.2 µM (inactive); in assay [17], 4.33 µM (inactive); in [18], 24.7 µM (inactive); in assay [19] it was 6.03 µM (inactive).

With `CC(=O)Nc1cccc(N2C(=O)/C(=C\c3cccc(Oc4ccccc4)c3)S(=O)(=O)C2c2ccccc2)c1` (centres undefined), the GI50 in [1] is > 100 µM (inactive); in assay [2], > 100 µM (inactive); in assay [3], 69.8 µM (inactive); in assay [4] it was 73.6 µM (inactive); in assay [5] it was above 100 µM; in [6], > 100 µM (inactive). Further, the GI50 in assay [7] was 43.3 µM (inactive); in assay [8], 90.6 µM (inactive); in [9] it was 16.1 µM (inactive); in assay [10], 97.7 µM (inactive); in assay [11] it was 25.2 µM (inactive); in [12], > 100 µM (inactive). The GI50 in [13] is 46.5 µM (inactive); in [14], > 100 µM (inactive); in [15], 55.6 µM (inactive); in assay [16] it was > 100 µM (inactive); in [17], > 100 µM (inactive); in [18], > 100 µM (inactive). In addition, in [19], the GI50 is 43.6 µM (inactive).

Take `O=C(NCCC(F)(F)C(F)(F)C(F)(F)C(F)(F)F)NC1OC(CO)C(O)C(O)C1O` (centres undefined): the GI50 is > 100 µM (inactive) in assay [1]; > 100 µM (inactive) in [2]; > 100 µM (inactive) in assay [3]; above 100 µM in [5]; > 100 µM (inactive) in assay [6]; > 100 µM (inactive) in assay [7]. Moreover, the GI50 in assay [8], in [9], in [10], in assay [11], in assay [12] and in assay [13] was > 100 µM (inactive) in each case. Further, the GI50 in assay [14], in [15], in assay [16], in assay [17], in assay [18] and in assay [19] was > 100 µM (inactive) in each case.

Turning to `C=CCC1C(=O)Nc2cccc3ncn(c23)C1=O` (centres undefined), the GI50 is > 100 µM (inactive) in assay [1]; > 100 µM (inactive) in assay [2]; > 100 µM (inactive) in [3]; > 100 µM (inactive) in [4]; above 100 µM in [5]; > 100 µM (inactive) in [6]. Further, the GI50 in assay [7], in [8], in assay [9], in [10], in assay [11] and in assay [12] was > 100 µM (inactive) in each case. Further, the GI50 in assay [13], in assay [14], in assay [15], in assay [16], in assay [17] and in assay [19] was > 100 µM (inactive) each time.

As for `O=C(Cn1c(C(=O)/C=C/c2cccs2)nc2ccccc21)c1ccc(Cl)cc1`, the GI50 in assay [1] was 16.3 µM (inactive); in [2] it was 26.6 µM (inactive); in assay [3], 21 µM (inactive); in assay [5], 21.5 µM; in assay [6] it was 25.9 µM (inactive); in assay [7], 23.3 µM (inactive). Further, the GI50 in assay [8] was 18.6 µM (inactive); in assay [10], 14.7 µM (inactive); in assay [11], 14.6 µM (inactive); in [12] it was 29.2 µM (inactive); in assay [14] it was 30.5 µM (inactive); in assay [15] it was 6 µM (inactive). The GI50 in assay [16] was 32.9 µM (inactive); in [17] it was 24.2 µM (inactive); in assay [18] it was 27 µM (inactive); in assay [19] it was 25.2 µM (inactive).

Regarding `CCCCOC(=O)NC(c1ccccc1)C(O)C(=O)OC1C[C@@]2(O)C(OC(=O)c3ccccc3)C3[C@](C)(C(=O)[C@H](OC(C)=O)C(=C1C)C2(C)C)[C@@H](O)C[C@H]1OC[C@@]31OC(C)=O` (some centres undefined), the GI50 is 0.00875 µM (active) in [1]; 0.0678 µM (active) in [2]; 0.0148 µM (active) in [3]; 0.0741 µM (active) in [4]; 0.145 µM in assay [5]; 0.0239 µM (active) in assay [6]. The GI50 in assay [7] is 5.7 µM (inactive); in assay [8], 0.0102 µM (active); in assay [9] it was 0.0407 µM (active); in assay [10], 0.0139 µM (active); in [11] it was 2.92 µM (inactive); in assay [12], 0.0156 µM (active). Besides, the GI50 was 0.0159 µM (active) in [13]; 0.00773 µM (active) in assay [15]; 0.0205 µM (active) in assay [16]; 0.0179 µM (active) in assay [17]; 0.101 µM (active) in [18]; 0.0134 µM (active) in assay [19].

For `CCOC(=O)c1sc2nc(SC)nc3c2c1NCN3C1CC1`, the GI50 in assay [1] was 48.2 µM (inactive); in [2], > 100 µM (inactive); in assay [3], > 100 µM (inactive); in [5], above 100 µM; in assay [6], > 100 µM (inactive); in assay [7], > 100 µM (inactive). Moreover, the GI50 in assay [8], in assay [10], in assay [11], in [12], in [13] and in [14] was > 100 µM (inactive) in each case. Also, the GI50 in [15] is > 100 µM (inactive); in [16], > 100 µM (inactive); in [17], 38.8 µM (inactive); in assay [18], > 100 µM (inactive); in assay [19] it was > 100 µM (inactive).

In the case of `O=c1n(CC2CO2)c(=O)n(CC2CO2)c(=O)n1CC1CO1` (centres undefined) [TEROXIRONE], the GI50 in [1] is 6.22 µM (inactive); in [2], 1.36 µM (inactive); in assay [3], 11.5 µM (inactive); in assay [4] it was 96.2 µM (inactive); in assay [6], 20.3 µM (inactive); in assay [7] it was 39.3 µM (inactive). Further, the GI50 was 9.27 µM (inactive) in assay [8]; 2.35 µM (inactive) in assay [9]; 16.7 µM (inactive) in [10]; 45.2 µM (inactive) in [11]; 37 µM (inactive) in assay [12]; 10 µM (inactive) in assay [13]. The GI50 in assay [14] is 54.5 µM (inactive); in assay [15], 90.2 µM (inactive); in assay [16] it was 36.1 µM (inactive); in assay [17], 25.1 µM (inactive); in assay [18], 36.6 µM (inactive); in assay [19], 2.49 µM (inactive).
